Data as given in the supplement of paper PMC10307832.

Assays:
Experiment in all cases: relative viability (nuclei count vs DMSO), 5 days (fraction); higher = more cells survive
Ispinesib + Tozasertib = compound: Cc1ccc(C(=O)N(CCCN)[C@@H](c2nc3cc(Cl)ccc3c(=O)n2Cc2ccccc2)C(C)C)cc1 [Ispinesib] + Cc1cc(Nc2cc(N3CCN(C)CC3)nc(Sc3ccc(NC(=O)C4CC4)cc3)n2)n[nH]1 [Tozasertib] (partner 0.1 µM)
How it was run: (§1)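 One day after seeding in 1536-well plates, lung cancer cell lines were dosed by pin tool. Dosing was either single-drug or a fixed anchor-drug dose plus five library-drug doses (not always all listed) in √10 steps. After 5 days, nuclei were stained in one fix-and-stain step and counted on 4× images, and relative viability is the nuclei count of treated wells over that of vehicle wells, given as the median of duplicate plates.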

Linsitinib + Lapatinib = compound: C[C@]1(O)C[C@@H](c2nc(-c3ccc4ccc(-c5ccccc5)nc4c3)c3c(N)nccn32)C1 [Linsitinib] + CS(=O)(=O)CCNCc1ccc(-c2ccc3ncnc(Nc4ccc(OCc5cccc(F)c5)c(Cl)c4)c3c2)o1 [Lapatinib] (partner 2 µM)
How it was run: as §1

Linsitinib + Olaparib = compound: C[C@]1(O)C[C@@H](c2nc(-c3ccc4ccc(-c5ccccc5)nc4c3)c3c(N)nccn32)C1 [Linsitinib] + O=C(c1cc(Cc2n[nH]c(=O)c3ccccc23)ccc1F)N1CCN(C(=O)C2CC2)CC1 [Olaparib] (partner 8 µM)
How it was run: as §1

Ispinesib + Pictilisib = compound: Cc1ccc(C(=O)N(CCCN)[C@@H](c2nc3cc(Cl)ccc3c(=O)n2Cc2ccccc2)C(C)C)cc1 [Ispinesib] + CS(=O)(=O)N1CCN(Cc2cc3nc(-c4cccc5[nH]ncc45)nc(N4CCOCC4)c3s2)CC1 [Pictilisib] (partner 1 µM)
How it was run: as §1

Cell Line | relative viability (Ispinesib + Tozasertib; first compound 0.001 µM) | relative viability (Ispinesib + Tozasertib; first compound 0.003162 µM) | relative viability (Ispinesib + Tozasertib; first compound 0.01 µM) | relative viability (Ispinesib + Tozasertib; first compound 0.03162 µM) | relative viability (Ispinesib + Tozasertib; first compound 0.1 µM) | relative viability (Linsitinib + Lapatinib; first compound 0.01 µM) | relative viability (Linsitinib + Lapatinib; first compound 0.03162 µM) | relative viability (Linsitinib + Lapatinib; first compound 0.1 µM) | relative viability (Linsitinib + Lapatinib; first compound 0.3162 µM) | relative viability (Linsitinib + Lapatinib; first compound 1 µM) | relative viability (Linsitinib + Olaparib; first compound 0.01 µM) | relative viability (Linsitinib + Olaparib; first compound 0.03162 µM) | relative viability (Linsitinib + Olaparib; first compound 0.1 µM) | relative viability (Linsitinib + Olaparib; first compound 1 µM) | relative viability (Ispinesib + Pictilisib; first compound 0.001 µM) | relative viability (Ispinesib + Pictilisib; first compound 0.003162 µM) | relative viability (Ispinesib + Pictilisib; first compound 0.01 µM) | relative viability (Ispinesib + Pictilisib; first compound 0.03162 µM) | relative viability (Ispinesib + Pictilisib; first compound 0.1 µM) | relative viability (Linsitinib + Olaparib; first compound 0.3162 µM)
NCI-H3122 | 0.408 | 0.402 | 0.462 | 0.212 | 0.17 | 1.04 | 1.06 | 0.982 | 0.737 | 1.12 | 0.557 | 0.541 | 0.547 | 0.503 | 0.601 | 0.838 | 0.635 | 0.569 | 0.162 | –
NCI-H2170 | 0.741 | 0.689 | 0.848 | 0.556 | 0.41 | 0.266 | 0.256 | 0.276 | 0.256 | 0.228 | 0.533 | 0.519 | 0.598 | 0.506 | 0.317 | 0.312 | 0.295 | 0.254 | 0.288 | –
NCI-H1793 | 0.322 | 0.345 | 0.724 | 0.288 | 0.368 | 0.786 | 0.822 | 0.751 | 0.43 | 0.478 | 0.772 | 0.841 | 0.628 | 0.697 | 0.331 | 0.404 | 0.39 | 0.217 | 0.124 | 0.666
BEN | 0.508 | 0.464 | 0.548 | 0.633 | 0.574 | 0.84 | 0.685 | 0.563 | – | 0.58 | 1.03 | 0.987 | 1.17 | 0.953 | 0.581 | 0.675 | 0.542 | 0.421 | 0.222 | 0.686
NCI-H647 | 0.323 | 0.201 | 0.0519 | 0.217 | 0.303 | 1.12 | 1.11 | 1.09 | – | 0.854 | 0.472 | 0.509 | 0.735 | 0.48 | 0.402 | 0.504 | 0.449 | 0.104 | 0.0557 | 0.442
PC-14 | 0.662 | 0.669 | 0.624 | 0.433 | 0.0644 | 0.281 | 0.301 | 0.303 | 0.31 | 0.257 | 0.26 | 0.177 | 0.303 | 0.263 | 0.796 | 0.668 | 0.78 | 0.232 | 0.169 | 0.233
HCC-78 | 0.444 | 0.426 | 0.521 | 0.449 | 0.407 | 0.364 | 0.651 | 0.514 | 0.676 | 0.542 | – | 1 | 0.706 | 0.506 | 0.223 | 0.198 | 0.235 | – | 0.247 | 0.916
NCI-H1666 | 0.56 | 0.601 | 0.613 | 0.542 | 0.454 | 0.806 | 0.506 | 0.477 | 0.163 | 0.183 | 0.743 | 1.02 | 0.76 | 0.75 | 0.42 | 0.404 | 0.42 | 0.302 | 0.312 | 0.667
COR-L 105 | 0.378 | 0.358 | 0.365 | 0.343 | 0.329 | 0.452 | 0.35 | 0.357 | 0.325 | 0.296 | 0.762 | 0.635 | 0.685 | 0.516 | 0.448 | 0.393 | 0.257 | 0.243 | 0.258 | 0.538
LU99A | 0.261 | 0.282 | 0.29 | 0.262 | 0.273 | 0.953 | 0.951 | 0.952 | 0.377 | 0.57 | 0.3 | 0.195 | 0.266 | 0.255 | 0.358 | 0.286 | 0.287 | 0.223 | 0.161 | –
NCI-H596 | 0.956 | 0.86 | 0.916 | 0.945 | 0.432 | 1.05 | 1.07 | 1.05 | 0.965 | 0.991 | 0.736 | 0.614 | 0.677 | 0.604 | 0.416 | 0.377 | 0.372 | 0.361 | 0.251 | 0.66
201T | 0.919 | 0.979 | 0.998 | 0.999 | 0.587 | 0.967 | 1.06 | 1.07 | 0.789 | 0.978 | 0.874 | 0.61 | 0.84 | 0.862 | 0.724 | 0.733 | 0.677 | 0.643 | 0.652 | 0.676
HCC-15 | 0.48 | 0.414 | 0.505 | 0.281 | 0.227 | 0.919 | 0.807 | 0.883 | 0.2 | 0.612 | 0.697 | 0.938 | 0.759 | 0.655 | 0.878 | 0.864 | 0.812 | 0.459 | 0.139 | 0.364
